ChEMBL document CHEMBL1201862, “PubChem BioAssay data set” (2004)
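A five-concentration, 48-hour dose response in 96-well plates underlies each endpoint, interpolated linearly between surrounding concentrations. GI50: concentration for 50% inhibition of growth.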 The source made the active and inactive calls. Rule as the data show it: active = GI50 up to about 1.1 µM and inactive = higher.

Experiments:
Experiment in all cases: NCI tumour cell line growth inhibition, 48 h
UO-31 = system: UO-31
COLO 205 = system: COLO 205
HCT-15 = system: HCT-15
HOP-62 = system: HOP-62
M14 = system: M14
MOLT-4 = system: MOLT-4
BT-549 = system: BT-549
LOX IMVI = system: LOX IMVI
SNB-75 = system: SNB-75
HCT-116 = system: HCT-116
RPMI-8226 = system: RPMI-8226
U-251 = system: U-251
T47D = system: T47D
UACC-257 = system: UACC-257
CAKI-1 = system: CAKI-1
Malme-3M = system: Malme-3M
PC-3 = system: PC-3
HCC 2998 = system: HCC 2998
SR = system: SR

**Q.** What does the source list for `Clc1cc(-c2ccccc2)nc2ccccc12`?
**A.** GI50 (UO-31): 32.9 µM (inactive); GI50 (COLO 205): 19.5 µM (inactive); GI50 (HCT-15): 16 µM; GI50 (HOP-62): > 100 µM (inactive); GI50 (M14): 37.6 µM (inactive); GI50 (MOLT-4): 22.1 µM (inactive); GI50 (BT-549): 18.8 µM (inactive); GI50 (LOX IMVI): 40 µM (inactive); GI50 (SNB-75): 28.6 µM (inactive); GI50 (HCT-116): 32.5 µM (inactive); GI50 (RPMI-8226): 23.7 µM (inactive); GI50 (U-251): 35.4 µM (inactive); GI50 (T47D): 31.3 µM (inactive); GI50 (UACC-257): 34.8 µM (inactive); GI50 (CAKI-1): 33.9 µM (inactive); GI50 (Malme-3M): 38 µM (inactive); GI50 (PC-3): 24.8 µM (inactive)

**Q.** What does the source list for `CCN(CC)CCn1ncc2c(N)ncnc21`?
**A.** GI50 (UO-31): > 100 µM (inactive); GI50 (COLO 205): > 100 µM (inactive); GI50 (HCT-15): > 100 µM; GI50 (HOP-62): > 100 µM (inactive); GI50 (M14): > 100 µM (inactive); GI50 (MOLT-4): > 100 µM (inactive); GI50 (BT-549): > 100 µM (inactive); GI50 (LOX IMVI): > 100 µM (inactive); GI50 (HCT-116): > 100 µM (inactive); GI50 (RPMI-8226): > 100 µM (inactive); GI50 (U-251): > 100 µM (inactive); GI50 (HCC 2998): > 100 µM (inactive); GI50 (T47D): > 100 µM (inactive); GI50 (CAKI-1): > 100 µM (inactive); GI50 (Malme-3M): > 100 µM (inactive); GI50 (PC-3): > 100 µM (inactive)

**Q.** Which GI50 (UO-31) does the source give for `CC(CCCC1SCC2NC(=O)NC21)C(=O)O` (configuration not stated) here?
**A.** > 100 µM (inactive)

**Q.** And the GI50 (COLO 205)?
**A.** > 100 µM (inactive)

**Q.** What about the GI50 (HCT-15) of the same compound?
**A.** > 100 µM

**Q.** What about the GI50 (HOP-62) of the same compound?
**A.** > 100 µM (inactive)

**Q.** What about the GI50 (M14) of the same compound?
**A.** > 100 µM (inactive)

**Q.** What about the GI50 (MOLT-4) of the same compound?
**A.** > 100 µM (inactive)

**Q.** And the GI50 (BT-549)?
**A.** > 100 µM (inactive)

**Q.** And the GI50 (LOX IMVI)?
**A.** > 100 µM (inactive)

**Q.** And the GI50 (SNB-75)?
**A.** > 100 µM (inactive)

**Q.** What about the GI50 (HCT-116) of the same compound?
**A.** > 100 µM (inactive)

**Q.** What about the GI50 (RPMI-8226) of the same compound?
**A.** > 100 µM (inactive)

**Q.** And the GI50 (U-251)?
**A.** > 100 µM (inactive)

**Q.** And the GI50 (T47D)?
**A.** > 100 µM (inactive)

**Q.** And the GI50 (CAKI-1)?
**A.** > 100 µM (inactive)

**Q.** And the GI50 (Malme-3M)?
**A.** > 100 µM (inactive)

**Q.** And the GI50 (SR)?
**A.** > 100 µM (inactive)

**Q.** And the GI50 (PC-3)?
**A.** > 100 µM (inactive)

**Q.** Which GI50 (UO-31) does the source give for `O=c1[nH]nc(Cc2ccccc2)n1/N=C/c1cccs1` here?
**A.** > 100 µM (inactive)

**Q.** And the GI50 (COLO 205)?
**A.** > 100 µM (inactive)

**Q.** And the GI50 (HCT-15)?
**A.** > 100 µM

**Q.** What about the GI50 (HOP-62) of the same compound?
**A.** > 100 µM (inactive)

**Q.** And the GI50 (M14)?
**A.** > 100 µM (inactive)

**Q.** What about the GI50 (MOLT-4) of the same compound?
**A.** 80.7 µM (inactive)

**Q.** What about the GI50 (BT-549) of the same compound?
**A.** > 100 µM (inactive)

**Q.** What about the GI50 (LOX IMVI) of the same compound?
**A.** > 100 µM (inactive)

**Q.** And the GI50 (SNB-75)?
**A.** > 100 µM (inactive)

**Q.** What about the GI50 (HCT-116) of the same compound?
**A.** > 100 µM (inactive)

**Q.** And the GI50 (RPMI-8226)?
**A.** 47.1 µM (inactive)

**Q.** And the GI50 (U-251)?
**A.** 48 µM (inactive)

**Q.** And the GI50 (HCC 2998)?
**A.** > 100 µM (inactive)

**Q.** And the GI50 (T47D)?
**A.** > 100 µM (inactive)

**Q.** And the GI50 (UACC-257)?
**A.** > 100 µM (inactive)

**Q.** What about the GI50 (CAKI-1) of the same compound?
**A.** > 100 µM (inactive)

**Q.** What about the GI50 (Malme-3M) of the same compound?
**A.** > 100 µM (inactive)

**Q.** What about the GI50 (PC-3) of the same compound?
**A.** > 100 µM (inactive)

**Q.** How did the GI50 (UO-31) turn out when `O=[N+]([O-])c1ccc(N2CCC(CCCC3CCN(c4ccc([N+](=O)[O-])cc4[N+](=O)[O-])CC3)CC2)c([N+](=O)[O-])c1` was run?
**A.** 11.9 µM (inactive)

**Q.** What about the GI50 (COLO 205) of the same compound?
**A.** 14.2 µM (inactive)

**Q.** What about the GI50 (HCT-15) of the same compound?
**A.** 18.3 µM

**Q.** What about the GI50 (HOP-62) of the same compound?
**A.** 15.5 µM (inactive)

**Q.** What about the GI50 (M14) of the same compound?
**A.** 13.2 µM (inactive)

**Q.** What about the GI50 (MOLT-4) of the same compound?
**A.** 23.3 µM (inactive)

**Q.** What about the GI50 (BT-549) of the same compound?
**A.** 24.4 µM (inactive)

**Q.** And the GI50 (LOX IMVI)?
**A.** 14.8 µM (inactive)

**Q.** And the GI50 (SNB-75)?
**A.** 14.7 µM (inactive)

**Q.** And the GI50 (HCT-116)?
**A.** 26.5 µM (inactive)

**Q.** And the GI50 (RPMI-8226)?
**A.** 13.4 µM (inactive)

**Q.** And the GI50 (U-251)?
**A.** 14.8 µM (inactive)

**Q.** What about the GI50 (T47D) of the same compound?
**A.** 5.64 µM (inactive)

**Q.** And the GI50 (UACC-257)?
**A.** 14.6 µM (inactive)

**Q.** And the GI50 (CAKI-1)?
**A.** 19 µM (inactive)

**Q.** And the GI50 (Malme-3M)?
**A.** 19.1 µM (inactive)

**Q.** What about the GI50 (SR) of the same compound?
**A.** 27 µM (inactive)

**Q.** And the GI50 (PC-3)?
**A.** 15.8 µM (inactive)

**Q.** Which GI50 (UO-31) does the source give for `Cc1ccc2ccc(O)cc2c1` here?
**A.** 23 µM (inactive)

**Q.** What about the GI50 (COLO 205) of the same compound?
**A.** > 100 µM (inactive)

**Q.** And the GI50 (HCT-15)?
**A.** 35.6 µM

**Q.** What about the GI50 (HOP-62) of the same compound?
**A.** > 100 µM (inactive)

**Q.** What about the GI50 (M14) of the same compound?
**A.** 46.5 µM (inactive)

**Q.** What about the GI50 (MOLT-4) of the same compound?
**A.** 22.6 µM (inactive)

**Q.** What about the GI50 (BT-549) of the same compound?
**A.** 26.7 µM (inactive)

**Q.** And the GI50 (LOX IMVI)?
**A.** 30.2 µM (inactive)

**Q.** And the GI50 (SNB-75)?
**A.** 48.9 µM (inactive)

**Q.** And the GI50 (HCT-116)?
**A.** 68.9 µM (inactive)

**Q.** And the GI50 (RPMI-8226)?
**A.** 27.9 µM (inactive)

**Q.** And the GI50 (U-251)?
**A.** 23.1 µM (inactive)

**Q.** What about the GI50 (HCC 2998) of the same compound?
**A.** 18.2 µM (inactive)

**Q.** And the GI50 (T47D)?
**A.** 35.3 µM (inactive)

**Q.** What about the GI50 (UACC-257) of the same compound?
**A.** 64.3 µM (inactive)

**Q.** What about the GI50 (CAKI-1) of the same compound?
**A.** 38.1 µM (inactive)

**Q.** What about the GI50 (Malme-3M) of the same compound?
**A.** 48.2 µM (inactive)

**Q.** And the GI50 (PC-3)?
**A.** 21.1 µM (inactive)

**Q.** How did the GI50 (UO-31) turn out when `CC(NNC(=O)c1ccc[n+]([BH2-]C#N)c1)c1ccccc1` (configuration not stated) was run?
**A.** > 100 µM (inactive)

**Q.** What about the GI50 (COLO 205) of the same compound?
**A.** > 100 µM (inactive)

**Q.** And the GI50 (HCT-15)?
**A.** > 100 µM

**Q.** And the GI50 (HOP-62)?
**A.** > 100 µM (inactive)

**Q.** What about the GI50 (M14) of the same compound?
**A.** > 100 µM (inactive)

**Q.** What about the GI50 (MOLT-4) of the same compound?
**A.** 38.3 µM (inactive)

**Q.** What about the GI50 (BT-549) of the same compound?
**A.** > 100 µM (inactive)

**Q.** What about the GI50 (LOX IMVI) of the same compound?
**A.** > 100 µM (inactive)

**Q.** And the GI50 (SNB-75)?
**A.** > 100 µM (inactive)

**Q.** And the GI50 (HCT-116)?
**A.** > 100 µM (inactive)

**Q.** And the GI50 (U-251)?
**A.** > 100 µM (inactive)

**Q.** And the GI50 (HCC 2998)?
**A.** > 100 µM (inactive)

**Q.** What about the GI50 (T47D) of the same compound?
**A.** > 100 µM (inactive)

**Q.** And the GI50 (UACC-257)?
**A.** > 100 µM (inactive)

**Q.** What about the GI50 (CAKI-1) of the same compound?
**A.** > 100 µM (inactive)

**Q.** What about the GI50 (Malme-3M) of the same compound?
**A.** > 100 µM (inactive)

**Q.** And the GI50 (PC-3)?
**A.** > 100 µM (inactive)

**Q.** With `Cc1ccccc1NC(=O)C(=O)Cc1cnc2ccccc2n1` as the compound, how does the GI50 (UO-31) read?
**A.** > 100 µM (inactive)

**Q.** What about the GI50 (COLO 205) of the same compound?
**A.** > 100 µM (inactive)

**Q.** What about the GI50 (HCT-15) of the same compound?
**A.** > 100 µM

**Q.** What about the GI50 (M14) of the same compound?
**A.** > 100 µM (inactive)

**Q.** And the GI50 (MOLT-4)?
**A.** > 100 µM (inactive)

**Q.** What about the GI50 (BT-549) of the same compound?
**A.** > 100 µM (inactive)

**Q.** What about the GI50 (LOX IMVI) of the same compound?
**A.** > 100 µM (inactive)

**Q.** And the GI50 (HCT-116)?
**A.** > 100 µM (inactive)

**Q.** What about the GI50 (RPMI-8226) of the same compound?
**A.** > 100 µM (inactive)

**Q.** And the GI50 (U-251)?
**A.** > 100 µM (inactive)

**Q.** What about the GI50 (HCC 2998) of the same compound?
**A.** > 100 µM (inactive)

**Q.** And the GI50 (T47D)?
**A.** > 100 µM (inactive)

**Q.** What about the GI50 (UACC-257) of the same compound?
**A.** > 100 µM (inactive)

**Q.** What about the GI50 (CAKI-1) of the same compound?
**A.** > 100 µM (inactive)

**Q.** What about the GI50 (Malme-3M) of the same compound?
**A.** > 100 µM (inactive)

**Q.** What about the GI50 (PC-3) of the same compound?
**A.** > 100 µM (inactive)
